Biological target: T1, CD36 (Homo sapiens, UniProt P16671)
T1 construct: full length human CD36 stably expressed in HEK 293 cells
Experiment: inhibition of Cy3-ox-LDL binding to HEK-CD36 cells at […]°C; affinity cross-linking of ox-LDL to CD36
Assay type: cell-based

T1 sequence (P16671 2-472): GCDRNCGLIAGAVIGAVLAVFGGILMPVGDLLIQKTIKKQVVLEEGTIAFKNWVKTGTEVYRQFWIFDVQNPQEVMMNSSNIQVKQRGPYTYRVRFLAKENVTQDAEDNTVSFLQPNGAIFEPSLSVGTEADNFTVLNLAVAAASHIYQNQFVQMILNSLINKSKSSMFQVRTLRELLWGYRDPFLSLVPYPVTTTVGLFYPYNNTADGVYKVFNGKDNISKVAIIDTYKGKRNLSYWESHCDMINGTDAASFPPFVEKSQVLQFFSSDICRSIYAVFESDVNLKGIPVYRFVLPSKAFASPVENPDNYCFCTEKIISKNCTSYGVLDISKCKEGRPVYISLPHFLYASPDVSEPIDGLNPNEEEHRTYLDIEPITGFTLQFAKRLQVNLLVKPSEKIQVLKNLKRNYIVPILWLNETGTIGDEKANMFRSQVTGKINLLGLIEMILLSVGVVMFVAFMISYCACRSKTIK

Row | IC50 | Structure (SMILES)
1 | 5000 ± 1000 nM | COc1cc(O)c(/C=N/NC(=O)c2ccc3nccn3c2)c(OC)c1 [AP5258]
2 | 1000 ± 100 nM | COc1cc(O)c(/C=N/NC(=O)c2cc3ccccc3s2)c(OC)c1 [AP5055]

— article PMC3360746, “CD36 Inhibitors Reduce Postprandial Hypertriglyceridemia and Protect against Diabetic Dyslipidemia and Atherosclerosis” (PLoS ONE, 2012)
